Measured values: patent US7829572B2 (Pfizer Inc, priority 2006, dated 2010)

What follows are compounds tested against T1, calcium receptor (CasR) (Homo sapiens, UniProt P41180) (assay: FLIPR Assay for Evaluating the Potency and Selectivity of Test Compounds). Details: HEK 293 cells expressing CasR; 30 minutes pre-incubation; stimulation by 1.7 mM Ca2+; read 42 seconds after stimulation.
T1 construct: expressed in transfected cells; host or cells: HEK 293
T1 sequence (P41180 20-1078): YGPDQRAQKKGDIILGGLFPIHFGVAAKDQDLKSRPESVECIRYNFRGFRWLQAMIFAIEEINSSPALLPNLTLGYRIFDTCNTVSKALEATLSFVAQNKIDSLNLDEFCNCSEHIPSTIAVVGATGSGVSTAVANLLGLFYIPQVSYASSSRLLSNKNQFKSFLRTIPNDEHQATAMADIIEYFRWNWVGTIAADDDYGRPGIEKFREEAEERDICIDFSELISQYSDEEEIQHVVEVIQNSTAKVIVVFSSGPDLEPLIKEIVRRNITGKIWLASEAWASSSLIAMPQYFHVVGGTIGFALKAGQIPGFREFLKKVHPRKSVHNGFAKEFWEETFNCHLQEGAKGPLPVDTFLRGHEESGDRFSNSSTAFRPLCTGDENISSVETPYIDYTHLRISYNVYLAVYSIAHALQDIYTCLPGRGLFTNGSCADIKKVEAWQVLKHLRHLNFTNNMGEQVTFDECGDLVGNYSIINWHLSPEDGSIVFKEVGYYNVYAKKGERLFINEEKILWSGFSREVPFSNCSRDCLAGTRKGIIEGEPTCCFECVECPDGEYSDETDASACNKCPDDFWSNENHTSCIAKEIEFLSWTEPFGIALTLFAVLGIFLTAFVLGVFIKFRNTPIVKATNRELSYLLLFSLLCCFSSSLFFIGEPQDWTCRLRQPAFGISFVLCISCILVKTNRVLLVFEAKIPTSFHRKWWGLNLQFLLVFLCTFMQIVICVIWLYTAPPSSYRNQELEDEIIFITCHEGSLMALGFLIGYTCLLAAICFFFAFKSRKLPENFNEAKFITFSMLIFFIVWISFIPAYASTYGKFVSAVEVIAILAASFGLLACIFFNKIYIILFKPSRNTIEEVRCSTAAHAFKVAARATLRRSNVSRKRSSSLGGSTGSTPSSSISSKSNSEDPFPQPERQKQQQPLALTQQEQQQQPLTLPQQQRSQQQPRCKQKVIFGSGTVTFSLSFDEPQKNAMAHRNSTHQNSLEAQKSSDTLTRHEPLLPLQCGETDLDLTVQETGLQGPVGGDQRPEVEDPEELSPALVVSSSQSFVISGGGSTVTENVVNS
Format: cell-based
From the text: FLIPR Assay for Evaluating the Potency and Selectivity of Test Compounds
Human kidney cell (HEK 293) expressing the calcium receptor (CasR) are used to detect antagonists of the receptor using Fluorometric imaging plate reader (FLIPR, Molecular Devices, Sunnyvale Calif.). Receptor activation by extracellular calcium results in the release of calcium from intracellular stores into the cytosol. A fluorescent indicator (Fluo-4) is internalized by the cells from growth media and interacts with calcium released into the cytosol to provide a means of quantifying intracellular Ca^2+ levels and receptor agonism/antagonism. Fluorescence intensity is detected by the FLIPR CCD camera and traced as a function of time. Potential antagonists are identified by their ability to decrease this fluorescent response.
Prior to the addition of test compound cells are washed with a 10 mM HEPES buffer solution. The test compound, for example the compound of Example 1, is added at various doses (from 1 µM to 3 nM) and pre-incubated with cells for 30 minutes followed by stimulation of the CasR by the addition of 1.7 mM Ca^2+. IC50 values are based on the ability of the cells to inhibit the Ca^2+ induced increase in intracellular Ca^2+. Fluorescence signal is read 42 seconds after the stimulation of the CasR by the addition of 1.7 mM Ca^2+.
The following table provides FLIPR IC50 data for the specified Examples. The IC50s are reported as micromolar concentration with n being the number of times the particular compound was assayed.

IC50 [nM]	SMILES
2260	CN(C)c1ccc(-c2nccc3nc(-c4ccccc4O)n(CCc4ccccc4)c(=O)c23)cn1 [Example 27, 5-(6-Dimethylamino-pyridin-3-yl)-2-(2-hydroxy-phenyl)-3-phenethyl-3H-pyrido[4,3-d]pyrimidin-4-one]
4830	Cc1cc(-c2nccc3nc(-c4ccccc4O)n(CCc4ccccc4)c(=O)c23)cnc1N(C)C [Example 28, 5-(6-Dimethylamino-5-methyl-pyridin-3-yl)-2-(2-hydroxy-phenyl)-3-phenethyl-3H-pyrido[4,3-d]pyrimidin-4-one]
490	O=c1c2c(-c3ccc(N4CCCC4)nc3)nccc2nc(-c2ccccc2O)n1CCc1ccccc1 [Example 29, 5-(6-pyrrolidine-5-pyridin-3-yl)-2-(2-hydroxy-phenyl)-3-phenethyl-3H-pyrido[4,3-d]pyrimidin-4-one]
1170	COc1nccc2nc(-c3ccccc3O)n(CCc3ccccc3)c(=O)c12 [Example 30, 2-(2-Hydroxy-phenyl)-5-methoxy-3-phenethyl-3H-pyrido[4,3-d]pyrimidin-4-one]
1930	CC1(COc2nccc3nc(-c4ccccc4O)n(CCc4ccccc4)c(=O)c23)CC1 [Example 31, 2-(2-Hydroxy-phenyl)-5-(1-methyl-cyclopropylmethoxy)-3-phenethyl-3H-pyrido[4,3-d]pyrimidin-4-one]
570	CCCOc1nccc2nc(-c3ccccc3O)n(CCc3ccccc3)c(=O)c12 [Example 32, 2-(2-Hydroxy-phenyl)-3-phenethyl-5-propoxy-3H-pyrido[4,3-d]pyrimidin-4-one]
520	O=c1c2c(OC3CCC3)nccc2nc(-c2ccccc2O)n1CCc1ccccc1 [Example 33, 5-Cyclobutyloxy-2-(2-hydroxy-phenyl)-3-phenethyl-3H-pyrido[4,3-d]pyrimidin-4-one]
380	CC(C)Oc1nccc2nc(-c3ccccc3O)n(CCc3ccccc3)c(=O)c12 [Example 35, 2-(2-Hydroxy-phenyl)-5-isopropoxy-3-phenethyl-3H-pyrido[4,3-d]pyrimidin-4-one]
600	O=c1c2c(OCC(F)(F)F)nccc2nc(-c2ccccc2O)n1CCc1ccccc1 [Example 36, 2-(2-Hydroxy-phenyl)-3-phenethyl-5-(2,2,2-trifluoro-ethoxy)-3H-pyrido[4,3-d]pyrimidin-4-one]
8	C[C@H](Cc1ccc(F)c(F)c1)n1c(-c2ncccc2O)nc2ccnc(C(F)(F)F)c2c1=O [Example 37a, (R)-3-(1-(3,4-difluorophenyl)propan-2-yl)-2-(3-hydroxypyridin-2-yl) 5-(trifluoromethyl)pyrido[4,3-d]pyrimidin-4(3H)-one]
2120	C[C@@H](Cc1ccc(F)c(F)c1)n1c(-c2ncccc2O)nc2ccnc(C(F)(F)F)c2c1=O [Example 37b, (S)-3-(1-(3,4-difluorophenyl)propan-2-yl)-2-(3-hydroxypyridin-2-yl) 5-(trifluoromethyl)pyrido[4,3-d]pyrimidin-4(3H)-one]
110	COc1ccccc1CCn1c(-c2ncccc2O)nc2ccnc(C(F)(F)F)c2c1=O [Example 39, 3-(2-methoxyphenethyl)-2-(3-hydroxypyridin-2-yl)-5-(trifluoromethyl)pyrido[4,3-d]pyrimidin-4(3H)-one]
460	O=c1c2c(C(F)(F)F)nccc2nc(-c2ncccc2O)n1CCc1cccc(F)c1F [Example 40, 3-(2,3-difluorophenethyl)-2-(3-hydroxypyridin-2-yl)-5-(trifluoromethyl)pyrido[4,3-d]pyrimidin-4(3H)-one]
250	COc1ccc(F)cc1CCn1c(-c2ncccc2O)nc2ccnc(C(F)(F)F)c2c1=O [Example 41, 3-(5-fluoro-2-methoxyphenethyl)-2-(3-hydroxypyridin-2-yl)-5-(trifluoromethyl)pyrido[4,3-d]pyrimidin-4(3H)-one]
1120	COc1cccc(F)c1CCn1c(-c2ncccc2O)nc2ccnc(C(F)(F)F)c2c1=O [Example 42, 3-(2-fluoro-6-methoxyphenethyl)-2-(3-hydroxypyridin-2-yl)-5-(trifluoromethyl)pyrido[4,3-d]pyrimidin-4(3H)-one]
2440	CCC(Cc1ccccc1F)n1c(-c2ncccc2O)nc2ccnc(C(F)(F)F)c2c1=O (stereo not drawn) [Example 44, 3-(1-(2-fluorophenyl)butan-2-yl)-2-(3-hydroxypyridin-2-yl)-5-(trifluoromethyl)pyrido[4,3-d]pyrimidin-4(3H)-one]
1870	COc1c(F)cccc1CCn1c(-c2ncccc2O)nc2ccnc(C(F)(F)F)c2c1=O [Example 45, 3-(3-fluoro-2-methoxyphenethyl)-2-(3-hydroxypyridin-2-yl)-5-(trifluoromethyl)pyrido[4,3-d]pyrimidin-4(3H)-one]
290	O=c1c2c(C(F)(F)F)nccc2nc(-c2ncccc2O)n1CCC1CCCC1 [Example 46, 3-(2-cyclopentylethyl)-2-(3-hydroxypyridin-2-yl)-5-(trifluoromethyl)pyrido[4,3-d]pyrimidin-4(3H)-one]
60	O=c1c2c(C(F)(F)F)nccc2nc(-c2ncccc2O)n1CCC1CCCCC1 [Example 47, 3-(2-cyclohexylethyl)-2-(3-hydroxypyridin-2-yl)-5-(trifluoromethyl)pyrido[4,3-d]pyrimidin-4(3H)-one]
160	C[C@H](CC1CCCCC1)n1c(-c2ncccc2O)nc2ccnc(C(F)(F)F)c2c1=O [Example 48a, (R)-3-(1-cyclohexylpropan-2-yl)-2-(3-hydroxypyridin-2-yl)-5-(trifluoromethyl)pyrido[4,3-d]pyrimidin-4(3H)-one]
1690	C[C@@H](CC1CCCCC1)n1c(-c2ncccc2O)nc2ccnc(C(F)(F)F)c2c1=O [Example 48b, (S)-3-(1-cyclohexylpropan-2-yl)-2-(3-hydroxypyridin-2-yl)-5-(trifluoromethyl)pyrido[4,3-d]pyrimidin-4(3H)-one]
30	C[C@H](Cc1ccccc1)n1c(-c2cccc(F)c2O)nc2ccnc(C(F)(F)F)c2c1=O [Example 50, (R)-2-(3-fluoro-2-hydroxyphenyl)-3-(1-phenylpropan-2-yl)-5-(trifluoromethyl)pyrido[4,3-d]pyrimidin-4(3H)-one]
110	C[C@H](Cc1ccccc1)n1c(-c2ncc[nH]2)nc2ccnc(C(F)(F)F)c2c1=O [Example 51, (R)-2-(1H-imidazol-2-yl)-3-(1-phenylpropan-2-yl)-5-(trifluoromethyl)pyrido[4,3-d]pyrimidin-4(3H)-one]
230	CC(=O)Nc1cccnc1-c1nc2ccnc(C(F)(F)F)c2c(=O)n1CCc1ccccc1F [Example 52, N-(2-(3-(2-fluorophenethyl)-4-oxo-5-(trifluoromethyl)-3,4-dihydropyrido[4,3-d]pyrimidin-2-yl)pyridin-3-yl)acetamide]
260	C[C@H](Cc1ccccc1)n1c(-c2cscn2)nc2ccnc(C(F)(F)F)c2c1=O [Example 53, (R)-3-(1-phenylpropan-2-yl)-2-(thiazol-4-yl)-5-(trifluoromethyl)pyrido[4,3-d]pyrimidin-4(3H)-one]
710	O=c1c2c(C(F)(F)F)nccc2nc(-c2cscn2)n1CCc1ccccc1 [Example 54, 3-phenethyl-2-(thiazol-4-yl)-5-(trifluoromethyl)pyrido[4,3-d]pyrimidin-4(3H)-one]

SMILES	IC50 [nM]
CC(C)COc1nccc2nc(-c3ccccc3O)n(CCc3ccccc3)c(=O)c12 [Example 34, 2-(2-Hydroxy-phenyl)-5-isobutoxy-3-phenethyl-3H-pyrido[4,3-d]pyrimidin-4-one]	1470
